# Assay results: patent US20230382886A1, “CONJUGATED TLR7 AND NOD2 AGONISTS” (UNIVERZA V LJUBLJANI, priority 2020, published 2023)
# Columns and labels:
# MEC-1 cancer cell line = test: PBMC cytotoxicity assay against MEC-1 target cells; assay type: cell-based; conditions: 1 μM; control medium; FIG. 1
# Description: (§1) The TLR7 and NOD2 conjugated compounds of the invention were tested for their ability to activate the cytotoxic activity of peripheral blood mononuclear cells (PBMCs) towards cancer cell lines. The main effector fraction of PBMCs in this assay are natural killer (NK) cells, which play an essential role in the innate immune system through their direct cytotoxic activity against aberrant cells, especially tumour cells and virally infected cells. The flow cytometry-based method described hereafter measures the PBMC cytotoxic activity against target cancer cell lines by co-incubating PBMCs and cancer cells, which were pre-labelled by carboxyfluorescein succinimidyl ester (CFSE) to distinguish them from effector cells. Successful activation of effector cells by the tested compounds leads to higher degree of cell death in the target cell population.
# (§2) Chronic myelogenous leukaemia K562 and chronic B cell leukaemia MEC-1 cell lines were used as target cells in the assay. Both cell lines were pre-cultured for at least 10 days before the assay was performed. Immediately prior to the addition of target cells to PBMCs, target cells were stained with CFSE at 2 μM for 15 minutes at 37° C. in the dark. Cells were then washed with medium and resuspended at 200.000 cells/mL.
# (§3) PBMCs were isolated from whole blood by centrifugation with the Ficoll-Paque density gradient solution. After centrifugation, PBMCs were washed twice with PBS and resuspended in medium at 4.000.000 cells/mL. To perform the assay, PBMCs were seeded on 96 well microtiter plates at 400.000 cells per well and cultured in duplicates at 37° C. for 20 h in the presence of the compounds.
# (§4) The compounds were prepared as follows: First, stock solutions of the conjugated compounds were prepared in DMSO at a 1 mM concentration. […]
# (§5) After incubating the PBMCs in the presence of compounds, 10.000 CFSE stained target cells were added to each well for a final 40:1 ratio of effector cells versus target cells. After 4 h of co-incubation, cells were stained with the SYTOXTM Blue (Invitrogen) nucleic acid stain and analysed with flow cytometry. […]
# K562 cancer cell line = test: PBMC cytotoxicity assay against K562 target cells; assay type: cell-based; conditions: 1 μM; control medium; FIG. 2
# Description: as §1, §2, §3, §4, §5
# [1] = test system: CD4 positive T-lymphocytes; test: Antigen presentation of BMDCs to CD4+ T-lymphocytes; assay type: cell-based, mouse; conditions: for dose dependence of BMDC antigen presentation to CD4 positive T-lymphocytes: 1 nM to 1 μM, FIG. 5; for ability to promote BMDC antigen presentation to CD4 positive T-lymphocytes (ratio of CD25 positive T-lymphocytes with low CFSE fluorescence): 100 nM, ovalbumin, FIG. 3
# Description: (§6) The effect of the conjugated compounds of the invention on antigen presentation of mouse bone marrow derived dendritic cells (BMDCs) to T-lymphocytes was examined.
# (§7) BMDCs were obtained by harvesting bone marrow from mouse hind legs. The harvested cells were then cultured for 10 days in the presence of granulocyte-macrophage colony-stimulating factor
# (§8) (GM-CSF) to ensure differentiation into dendritic cells. BMDCs were seeded on 96 well microtiter plates at 10.000 cells per well and stimulated in duplicates with conjugated compounds and ovalbumin (50 μg/mL) at 37° C. for 20 h. After this period, the supernatants were removed and either CD4+ T-Iymphocytes or CD8+ T-Iymphocytes were added.
# (§9) The compounds were prepared as follows: First, stock solutions of the conjugated compounds were prepared in DMSO at a 1 mM concentration. The working dilutions of the conjugated compounds in medium were then added directly to BMDCs to ensure final concentrations ranging from 1 nM to 1 μM.
# (§10) CD4+ and CD8+ T-lymphocytes were obtained from single-cell suspensions of spleens from OT-II and OT-I transgenic mice, respectively. These express a T-cell receptor that pairs with the CD4 or CD8 co-receptors and is specific for the ovalbumin antigen. After harvesting the spleen, CD4+ or CD8+ cell fractions were enriched with MACS separation technology (Miltenyi Biotec CD4+ T Cell Isolation Kit or CD8+ T Cell Isolation Kit, respectively). T-lymphocytes were then stained with CFSE and added to BMDCs at 50.000 cells per well.
# (§11) After co-culturing the BMDCs and T-lymphocytes for 72 hours at 37° C., T-lymphocyte activation was assessed with flow cytometry by measuring the expression of CD25, characteristic for activated T-lymphocytes. Concurrently, the intensity of CFSE fluorescence was measured to evaluate T-lymphocyte proliferation. […] SG48, SG144 and RH32 were the tested conjugated compounds of the invention. Medium was used as a negative control. LPS (1 μg/mL) was used as the positive control. Intermediary compound SG8 was employed as a known NOD2 agonist of the desmuramylpeptide type (Gobec et al. 2018). Intermediary compound SG43 was employed as a known TLR7 agonist of the purine type (Akinbobuyi et al. 2016). The combination of SG8 and SG43 was employed to compare the activity of conjugated compounds against an unconjugated mixture of NOD2 and TLR7 agonists.
# [2] = test system: CD8 positive T-lymphocytes; test: Antigen presentation of BMDCs to CD8+ T-lymphocytes; assay type: cell-based, mouse; conditions: for dose dependence of BMDC antigen presentation to CD8 positive T-lymphocytes: 1 nM to 1 μM, FIG. 6; for ability to promote BMDC antigen presentation to CD8 positive T-lymphocytes (ratio of CD25 positive T-lymphocytes with low CFSE fluorescence): 100 nM, ovalbumin, FIG. 4
# Description: as §6, §7, §8, §9, §10, §11
SMILES,ability to activate the cytotoxic activity of PBMCs against the MEC-1 cancer cell line (ratio against the control) (MEC-1 cancer cell line),ability to activate the cytotoxic activity of PBMCs against the K562 cancer cell line (ratio against the control) (K562 cancer cell line),dose dependence of BMDC antigen presentation to CD4 positive T-lymphocytes [1],ability to promote BMDC antigen presentation to CD4 positive T-lymphocytes (ratio of CD25 positive T-lymphocytes with low CFSE fluorescence) [1],dose dependence of BMDC antigen presentation to CD8 positive T-lymphocytes [2],ability to promote BMDC antigen presentation to CD8 positive T-lymphocytes (ratio of CD25 positive T-lymphocytes with low CFSE fluorescence) [2]
"CCCCOc1nc(N)c2nc(O)n(Cc3ccc(C(=O)NCCCCCC(=O)Oc4ccc(/C=C/C(=O)NCC(=O)N[C@H](C(=O)N[C@H](CCC(=O)OCC)C(=O)OCC)C(C)C)cc4OC)cc3)c2n1 [SG48, Diethyl ((E)-3-(4-((6-(4-((6-amino-2-butoxy-8-hydroxy-9H-purin-9-yl)methyl)benzamido)hexanoyl)-oxy)-3-methoxyphenyl)acryloyl)glycyl-L-yalyl-D-glutamate]",activate the cytotoxic activity of PBMCs,activate the cytotoxic activity of PBMCs,dose-dependent,promote BMDC antigen presentation,dose-dependent,promote BMDC antigen presentation
CCCCOc1nc(N)c2nc(O)n(Cc3ccc(C(=O)NCCOCCOCCNC(=O)CC[C@@H](NC(=O)[C@@H](NC(=O)CNC(=O)/C=C/c4ccc(O)c(OC)c4)C(C)C)C(=O)OCC)cc3)c2n1 [RH32],activate the cytotoxic activity of PBMCs,activate the cytotoxic activity of PBMCs,–,promote BMDC antigen presentation,–,promote BMDC antigen presentation
"CCCCOc1nc(N)c2nc(O)n(Cc3ccc(C(=O)NCCOCCNC(=O)CC[C@@H](NC(=O)[C@@H](NC(=O)CNC(=O)/C=C/c4ccc(O)c(OC)c4)C(C)C)C(=O)OCC)cc3)c2n1 [SG144, Ethyl N5-(2-(2-(4-((6-amino-2-butoxy-8-hydroxy-9H-purin-9-yl)methyl)benzamido)ethoxy)ethyl)-N2-((E)-3-(4-hydroxy-3-methoxyphenyl)acryloyl)glycyl-L-yalyl-D-glutaminate]",activate the cytotoxic activity of PBMCs,activate the cytotoxic activity of PBMCs,dose-dependent,promote BMDC antigen presentation,dose-dependent,promote BMDC antigen presentation
